# Data from patent US7629308B2, “Methods relating to muscle selective calcineurin interacting protein (MCIP)” (Board of Regents, The University of Texas System, priority 2000, dated 2009).
# Values joined by “and” are separate entries in the source; they are usually repeats but may differ in a detail not shown here. Identical values can stand only once.
# How the values were obtained:
# cardiac hypertrophy [1] = assay: Cardiac hypertrophy after isoproterenol infusion or wheel running exercise; type: in vivo, mouse
# Description: Intact animal studies: In addition to the genetic cross to α-MHC-CnA* animals, α-MHC-hMCIP1 transgenic mice and wild-type littermates were subjected to two independent stimuli known to provoke cardiac hypertrophy. Twelve-week old and 28-week old male mice were surgically implanted with a subcutaneous mini-osmotic pump (Alzet model 2001) that released isoproterenol in 0.9% NaCl at a rate of 28 mg per hour per […] of body weight over a seven day period. Control pumps delivered a 0.9% NaCl solution. Hearts were harvested on day eight. The heart body weight ratio (htw/bw) of isoproterenol-treated, animals were compared to the mean htw/bw ratio of age matched saline-treated animals of the same genotype. For exercise-induced hypertrophy, 28-week old male animals were placed in individual cages where they had free access to a running wheel. The number of revolutions was monitored continuously for 28 days. The animals ran an average of 3 to 5 kilometers a day. The heart body weight ratios (htw/bw) of the exercised animals were compared to the mean htw/bw ratios of age-matched sedentary animals of the same genotype. A Wilcoxon rank sum test was used to determine statistically significant differences among treatment groups (p<0.05). All animal protocols were reviewed and approved by the appropriate institutional review boards.
# MCIP2 mRNA [2] = assay: Northern blot of MCIP2 mRNA in mouse heart and soleus; type: in vivo
# Description: (§1) Animal experiments: Lines of transgenic mice in which the cc myosin heavy chain promoter is used to drive expression of a constitutively active form of calcineurin selectively in the heart were generated and described previously (Molkentin et al., 1998). Wildtype male C57B1/6 mice were injected intraperitoneally with 3, 5, 3′-triiodothyromine (T3) ([…]) or an equal volume of 0.9% saline once a day for ten days (Robbins & Swain, 1992). All experiments involving animals were conducted using IACRAC-approved protocols.
# (§2) RNA isolation and Northern blot analysis: Total RNA was prepared from mouse tissues or C2C12 cells using Tripure (Boehringer Mannheim, Inc.) following the manufacturer's protocol. Northern blot analysis was performed with […] of total RNA in each lane and probed in Ultrahyb (Ambion) with complementary sequences representing the 3′ UTR of MCIP1 (common to all known splicing variants), exon 1 of MCIP1, exon 4 of MCIP1, or ORF segments of MCIP2 or GAPDH cDNA. Probes were generated by PCR and labeled as described previously (Rothermel et al., 2000). Signals from Northern blots were detected on a Storm PhosphorImager (Molecular Dynamics) and quantified using ImageQuant (version 1.2).
# cardiac hypertrophy [3] = assay: Hyperthyroid cardiac hypertrophy induced by T3 injection; type: in vivo, mouse; conditions: ten days i.p.; n=4
# Description: as §1
# MCIP1 mRNA [4] = assay: Northern blot of MCIP1 mRNA in mouse heart and soleus; type: in vivo
# Description: as §1, §2
# Gal4-VP16 = conditions: C2C12 cells
# Description: Tissue Culture, Cell Transfection, and Reporter Gene Assays—C2C12 myoblasts were grown in Dulbecco's modified Eagle's medium supplemented with 20% fetal bovine serum and antibiotics (100 units of penicillin and 100 g of streptomycin/ml). Myotube formation was induced by switching confluent cells to differentiation media (Dulbecco's modified Eagle's medium supplemented with 2% heat-inactivated horse serum) for 48-72 h. For transient transfection assays, C2C12 cells were plated 12 h before transfection in 12-well tissue culture dishes at 5×10^4 cells/well, and transfected with a total of 0.5 μg of plasmid DNA using LipofectAMINE Plus (Life Technologies, Inc.). Myoblasts were harvested 24 h after transfection. Myotubes were obtained by shifting cultures to differentiation media 24 h after transfection and harvesting 48 h later. To stimulate transfected cells, 1 μM ionomycin and 10 ng/ml phorbol myristate acetate (PMA) were added 4.5 h prior to harvesting. Luciferase assays of whole cell extracts were conducted as described previously (Yang et al., 1997).
# [5] = test system: constitutively active form of NFATc; assay: IL-2-luc reporter driven by constitutively active NFAT in C2C12 cells; type: cell-based, mouse
# From the text: (§3) GST-MCIP1 fusions were expressed from the bacterial expression plasmid pGEX-CS (T. D. Parks, et al. 1994). Luciferase reporter plasmids, Mb-luc and IL-2-luc, were constructed in pGL3 (Promega) by inserting promoter/enhancer regions from genes encoding human myoglobin (Chin et al., 1998) or IL-2 (Clipstone et al., 1992), respectively. In addition, a synthetic enhancer consisting of three copies of a high affinity MEF2 binding sequence from the desmin promoter (Naya et al., 2000) was linked to a minimal promoter (hsp68) and inserted into pGL3 yielding the des-MEF-luc reporter. The β-galactosidase reporter plasmid pCMV-lacZ (J. Grayson, et al. 1998), and expression vectors encoding constitutively active forms of NFAT (Molkentin et al., 1998), calcineurin (CnA*) (Chin et al., 1998, O'Keefe et al., 1992), or calmodulin dependent protein kinase type IV (CaMKIV) (Ho et al., 1996), were previously described. The identity of plasmid constructions was confirmed by restriction mapping and partial DNA sequencing.
# (§4) Myoblasts were harvested 24 h after transfection.
# calcineurin = assay: Luciferase reporter assays of calcineurin-dependent transcription in C2C12 cells; type: cell-based, mouse
# From the text: as §3, §4
# Cell culture studies: C2C12 myoblasts were maintained and transfected as previously described (Rothermel et al., 2000). Luciferase assays of whole cell extracts were performed as previously described (Rothermel et al., 2000). All results were corrected for variations in transfection efficiency by normalization to expression of a cotransfected pCMV-LacZ plasmid.
# calcineurin A = biological target: T1, calcineurin A (Mus musculus, UniProt P63328); assay: In vitro protein-protein interaction assay (GST pull-down); type: binding
# T1 construct: calcineurin A (amino acids 1-398) was translated in rabbit reticulocyte lysates; made in house; host or cells: calcineurin A: rabbit reticulocyte lysate (TNT coupled transcription/translation, Promega); GST-MCIP1: bacteria (pGEX-CS)
# Description: In Vitro Protein-Protein Interaction Assays—GST and GST-MCIP1 fusion proteins were prepared as described previously (Grayson et al., 1998). [^35S]Methionine labeled CnA398, CnA342, and CnA266 were produced in the TNT coupled in vitro transcription/translation system (Promega). For in vitro binding assays, equivalent amounts of GST fusion proteins bound to glutathione were resuspended in 500 μl of binding buffer (20 mM Tris, pH 7.5, 100 mM KCl, 0.1 mM EDTA, 0.05% Nonidet P-40, 10% glycerol, and 1 mg/ml bovine serum albumin). [^35S]Methionine-labeled CnA proteins were added to the resuspended GST fusion proteins and incubated for 1 h. The beads were then spun down and washed three times in binding buffer. An equal volume of 2×SDS-PAGE loading buffer was added, and the suspension was boiled for 3 min. The bound proteins were then resolved on SDS-PAGE and visualized by autoradiography. ^35S-Labeled luciferase protein (Promega) was used as a negative control. For estimation of binding efficiency, 25% of the radiolabeled protein was loaded as an input control.
# MCIP1 mRNA [6] = assay: Northern blot of MCIP1 mRNA in C2C12 cells; type: cell-based, mouse
# Description: (§5) Tissue culture, cell transfection or infection, reporter gene assays: C2C12 myoblasts and myotubes were cultured as previously described (Grayson et al, 1995). Ionomycin ([…]) and cyclosporin A (50 to 200 nM) were added 4 hrs prior to harvesting the cells. When included, cyclohexamide (25 mM) was added 15 min prior to ionomycin. Transient transfection with plasmids or infection with recombinant, replication-defective adenoviruses, and luciferase assays were performed as previously reported (Chin et al, 1998; Rothermel et al., 2000; Wu et al., 1973).
# as §2
# MCIP2 mRNA [7] = assay: Northern blot of MCIP2 mRNA in C2C12 cells; type: cell-based, mouse
# Description: as §5, §2
# [8] = Heart, i.p. once a day for ten days
# [9] = Soleus, pooled muscles from two animals
# [10] = C2C12, single culture dish, normalized to GAPDH mRNA
molecule,measurement,setting,value
CC(C)NCC(O)c1ccc(O)c(O)c1 (stereo not shown) [isoproterenol],percent increase in heart weight to body weight ratio,"cardiac hypertrophy [1]; male wild-type mice, isoproterenol by osmotic minipump over seven days",22.8±1.95%
"N[C@@H](Cc1cc(I)c(Oc2ccc(O)c(I)c2)c(I)c1)C(=O)O [T3, 3,5, 3′-triiodothyromine]","MC1P2 (fold change in mRNA), Response to Thyroid Hormone",MCIP2 mRNA [2]; [8],1.59 fold and 1.81 fold and 1.71 fold
same,"MC1P2 (fold change in mRNA), Response to Thyroid Hormone",MCIP2 mRNA [2]; [9],1.72 fold and 2.21 fold and 1.62 fold
same,increase of MCIP2 transcript levels,MCIP2 mRNA [2]; both heart and soleus skeletal muscles,approximately 2 fold
same,"T3 Effect, MC1P2 (aggregate fold change, mean ±SE)",MCIP2 mRNA [2]; heart and soleus,1.78 ± 0.01 fold
same,mean heart weight,cardiac hypertrophy [3],180 mg
same,mean heart weight/body weight ratio,cardiac hypertrophy [3],7.2 mg/gm
same,"MC1P1 (fold change in mRNA), Response to Thyroid Hormone",MCIP1 mRNA [4]; [8],1.05 fold and 0.87 fold and 1.08 fold
same,"MC1P1 (fold change in mRNA), Response to Thyroid Hormone",MCIP1 mRNA [4]; [9],0.78 fold and 1.05 fold and 1.24 fold
same,"T3 Effect, MC1P1 (aggregate fold change, mean ±SE)",MCIP1 mRNA [4]; heart and soleus,1.01 ± 0.06 fold
same,expression of MCIP1 in hyperthyroid hearts,"MCIP1 mRNA [4]; heart, ten days",unaltered
"MCIP1: myocyte-enriched calcineurin interacting protein 1, product of human gene DSCR1; expressed from transfected plasmid or transgene",effect on Gal4-VP16 induction of UASg-TATA-luc,Gal4-VP16,not affected
same,effect on transcriptional activation mediated by NFAT (IL-2-luc),[5],does not inhibit
same,percent increase in heart weight to body weight ratio,"cardiac hypertrophy [1]; α-MHC-hMCIP1 transgenic mice, isoproterenol over seven days",9.4±0.87%
same,effect on activation of the des-MEF2-luc reporter by CnA* alone or CnA* with CaMKIV,calcineurin; C2C12 cells,inhibited
same,effect on calcineurin response of the MCIP1 (−874 to +30)-luciferase reporter,"calcineurin; C2C12 cells, not shown",represses this response
same,effect on activation of IL-2 and Mb enhancer constructs by CnA*,calcineurin; C2C12 myoblasts and myotubes,abolished
same,inhibition of calcineurin induction of the IL-2-Luc reporter gene,"calcineurin; C2C12 myoblasts, pCMV-CnA*",almost completely inhibit
same,effect alone on activity of reporter constructs,"calcineurin; TATA-luc, IL-2-luc, Mb-luc, no CnA*",no effect
same,effect on PMA/ionophore activation of the myoglobin enhancer (Mb-luc),"calcineurin; endogenous calcineurin, C2C12 myoblasts and myotubes",inhibited
same,binding to CnA(342),calcineurin A; lacks calmodulin and calcineurin B binding regions,did not disrupt the interaction
same,binding to CnA(266),calcineurin A; lacks carboxyl-terminal half of the catalytic domain,no longer capable of binding
"C[C@H](CCC(=O)O)C[C@H](C)C[C@H](C)C(=O)/C=C(\O)[C@H](C)C[C@H](C)C/C=C/[C@@H](C)[C@@H](O)[C@@H](C)[C@@H](O)C[C@@H]1CC[C@@](C)([C@H]2CC[C@@](C)([C@@H](C)O)O2)O1 [Ionomycin, ionomycin]","MC1P1 (fold change in mRNA), Response to Calcineurin Activation",MCIP1 mRNA [6]; [10],2.42 fold and 1.94 fold and 1.26 fold
same,up-regulation of MCIP1 mRNA in the presence of cyclohexamide,"MCIP1 mRNA [6]; C2C12 cells, cyclohexamide added 15 min prior",~10 fold
same,induction of MCIP1 mRNA,"MCIP1 mRNA [6]; C2C12 myoblasts or myotubes, cyclohexamide absent",2 fold
same,increase of MCIP1 mRNA in the absence of cyclosporin,MCIP1 mRNA [6]; compared to cells treated with the highest dose of cyclosporin,4 fold
same,"MC1P2 (fold change in mRNA), Response to Calcineurin Activation",MCIP2 mRNA [7]; [10],0.94 fold and 1.00 fold and 1.12 fold
same,expression of MCIP2 mRNA,MCIP2 mRNA [7]; C2C12 cells,unaffected
